Calls of active or inactive are those of the source. The calls are words filed in the database; no cut-off is given here.
Legend:
[1] = target: T1, von Hippel-Lindau disease tumor suppressor/Focal adhesion kinase 1 (Homo sapiens, UniProt Q05397+P40337); test: Protac activity at VHL/PTK2 in human SNU-398 cells assessed as induction of PTK2 degradation incubated for 18 hrs by protein capillary electrophoresis method; format: cell-based
Target sequence in this assay (Q05397 whole entry): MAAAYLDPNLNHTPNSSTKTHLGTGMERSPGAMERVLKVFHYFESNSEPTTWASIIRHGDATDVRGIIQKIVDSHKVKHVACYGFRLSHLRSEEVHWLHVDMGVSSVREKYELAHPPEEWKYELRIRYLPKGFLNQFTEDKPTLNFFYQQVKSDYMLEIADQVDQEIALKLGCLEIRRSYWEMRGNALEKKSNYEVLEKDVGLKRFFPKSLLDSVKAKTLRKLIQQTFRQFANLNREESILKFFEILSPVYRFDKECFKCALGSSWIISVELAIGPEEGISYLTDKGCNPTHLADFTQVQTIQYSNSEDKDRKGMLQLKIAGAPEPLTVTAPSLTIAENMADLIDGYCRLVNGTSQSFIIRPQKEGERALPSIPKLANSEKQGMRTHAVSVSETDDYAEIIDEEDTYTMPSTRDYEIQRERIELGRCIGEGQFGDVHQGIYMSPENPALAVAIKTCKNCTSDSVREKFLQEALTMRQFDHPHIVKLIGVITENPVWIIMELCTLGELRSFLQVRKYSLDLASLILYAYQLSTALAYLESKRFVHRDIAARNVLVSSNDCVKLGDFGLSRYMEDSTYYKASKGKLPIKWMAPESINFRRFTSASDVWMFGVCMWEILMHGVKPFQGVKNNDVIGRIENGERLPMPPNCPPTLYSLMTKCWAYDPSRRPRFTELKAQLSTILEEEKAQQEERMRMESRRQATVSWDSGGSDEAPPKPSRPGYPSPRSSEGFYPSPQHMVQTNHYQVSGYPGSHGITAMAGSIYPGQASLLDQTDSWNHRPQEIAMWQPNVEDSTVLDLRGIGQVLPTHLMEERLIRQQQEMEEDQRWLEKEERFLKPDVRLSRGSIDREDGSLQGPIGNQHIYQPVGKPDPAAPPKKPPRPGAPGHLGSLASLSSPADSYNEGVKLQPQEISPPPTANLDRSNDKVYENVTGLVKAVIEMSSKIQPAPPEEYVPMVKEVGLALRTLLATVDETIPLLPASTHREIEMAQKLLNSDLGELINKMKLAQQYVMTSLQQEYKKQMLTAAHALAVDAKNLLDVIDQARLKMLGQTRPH
Target sequence in this assay (P40337 whole entry): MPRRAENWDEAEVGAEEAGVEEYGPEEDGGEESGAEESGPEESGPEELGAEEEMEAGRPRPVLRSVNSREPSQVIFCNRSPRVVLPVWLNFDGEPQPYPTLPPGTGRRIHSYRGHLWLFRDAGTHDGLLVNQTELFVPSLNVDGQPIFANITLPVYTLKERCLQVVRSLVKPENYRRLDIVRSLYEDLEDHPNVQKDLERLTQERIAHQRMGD

SNU-398 [2] = test: Antiproliferative activity against human SNU-398 cells incubated for 7 to 14 days by methylene blue dye based anchorage independent growth assay; format: functional, cell-based; conditions: time 7-14 day
cells [3] = conditions: Homo sapiens, HLF1, 144 h, read-out: pIC50 (converted)
Description: Antiproliferative activity against human HLF1 cells incubated for 6 days by CellTiter-Glo luminescent cell viability assay

A549 [4] = test: Antiproliferative activity against C32 in human A549 cells at 3 uM incubated for 21 day; format: functional, cell-based
[5] = target: T1, von Hippel-Lindau disease tumor suppressor/Focal adhesion kinase 1; test: Protac activity at VHL/PTK2 in human Hep3B2.1-7 cells assessed as induction of PTK2 degradation incubated for 18 hrs in presence of Cyclosporine by protein capillary electrophoresis method; format: cell-based; conditions: hep3b
Target sequence in this assay (Q05397 whole entry): as the sequence (Q05397 whole entry) above
Target sequence in this assay (P40337 whole entry): as the sequence (P40337 whole entry) above

Focal adhesion kinase 1 = Focal adhesion kinase 1 (Homo sapiens, UniProt Q05397); test: Inhibition of human PTK2 (411-689 residues) expressed in Hi-5 cells
HuCCT-1 [6] = test: Antiproliferative activity against human HuCCT-1 cells incubated for 7 to 14 days by methylene blue dye based anchorage independent growth assay; format: functional, cell-based; conditions: time 7-14 day
[7] = target: Retinal rod rhodopsin-sensitive cGMP 3',5'-cyclic phosphodiesterase subunit delta (Homo sapiens) (UniProt O43924); test: Induction of PDE6D degradation in human A549 cells at 100 nM to 10000 nM incubated for 18 hrs by immunoblot analysis based protein capillary electrophoresis; format: cell-based
SK-HEP1 [8] = test: cells; conditions: Homo sapiens, SK-HEP1, 144 h, read-out: pIC50 (converted)
Description: Antiproliferative activity against human SK-HEP1 cells incubated for 6 days by CellTiter-Glo luminescent cell viability assay

C32 = test: Antiproliferative activity against C32 in human […] cells at 3 uM incubated for 21 days; format: functional, cell-based; conditions: time 21.0 day
SNU-423 [9] = test: Antiproliferative activity against human SNU-423 cells incubated for 7 to 14 days by methylene blue dye based anchorage independent growth assay; format: functional, cell-based; conditions: time 7-14 day
CFPAC-1 = test: Antiproliferative activity against C32 in human CFPAC-1 cells at 3 uM incubated for 21 day; format: functional, cell-based
SK-HEP1 [10] = test: Antiproliferative activity against human SK-HEP1 cells incubated for 7 to 14 days by methylene blue dye based anchorage independent growth assay; format: functional, cell-based; conditions: time 7-14 day
[11] = Permeability in human Caco-2 cells; format: ADME, cell-based
HuH-1 = test: Antiproliferative activity against human HuH-1 cells incubated for 7 to 14 days by methylene blue dye based anchorage independent growth assay; format: functional, cell-based; conditions: time 7-14 day
Huh-7 [12] = test: Antiproliferative activity against human Huh-7 cells incubated for 7 to 14 days by methylene blue dye based anchorage independent growth assay; format: functional, cell-based; conditions: time 7-14 day
SNU-387 [13] = test: Antiproliferative activity against human SNU-387 cells incubated for 7 to 14 days by methylene blue dye based anchorage independent growth assay; format: functional, cell-based; conditions: time 7-14 day
SNU-387 [14] = test: cells; conditions: Homo sapiens, SNU-387, 144 h, read-out: pIC50 (converted)
Description: Antiproliferative activity against human SNU-387 cells incubated for 6 days by CellTiter-Glo luminescent cell viability assay

HLF1 = test: Antiproliferative activity against human HLF1 cells incubated for 7 to 14 days by methylene blue dye based anchorage independent growth assay; format: functional, cell-based; conditions: time 7-14 day
cells [15] = conditions: Homo sapiens, HuH-1, 144 h, read-out: pIC50 (converted)
Description: Antiproliferative activity against human HuH-1 cells incubated for 6 days by CellTiter-Glo luminescent cell viability assay

SNU-423 [16] = test: cells; conditions: Homo sapiens, SNU-423, 144 h, read-out: pIC50 (converted)
Description: Antiproliferative activity against human SNU-423 cells incubated for 6 days by CellTiter-Glo luminescent cell viability assay

cells [17] = conditions: Homo sapiens, Hep3B, 144 h, read-out: pIC50 (converted)
Description: Antiproliferative activity against human Hep3B2.1-7 cells incubated for 6 days by CellTiter-Glo luminescent cell viability assay

[18] = target: T1, von Hippel-Lindau disease tumor suppressor/Focal adhesion kinase 1; test: Protac activity at VHL/PTK2 in human A549 cells assessed as time required for maximal induction of PTK2 degradation at 3 uM by protein capillary electrophoresis method; format: cell-based
Target sequence in this assay (P40337 whole entry partner): as the sequence (P40337 whole entry) above
Target sequence in this assay (Q05397 2-1052 limits assumed): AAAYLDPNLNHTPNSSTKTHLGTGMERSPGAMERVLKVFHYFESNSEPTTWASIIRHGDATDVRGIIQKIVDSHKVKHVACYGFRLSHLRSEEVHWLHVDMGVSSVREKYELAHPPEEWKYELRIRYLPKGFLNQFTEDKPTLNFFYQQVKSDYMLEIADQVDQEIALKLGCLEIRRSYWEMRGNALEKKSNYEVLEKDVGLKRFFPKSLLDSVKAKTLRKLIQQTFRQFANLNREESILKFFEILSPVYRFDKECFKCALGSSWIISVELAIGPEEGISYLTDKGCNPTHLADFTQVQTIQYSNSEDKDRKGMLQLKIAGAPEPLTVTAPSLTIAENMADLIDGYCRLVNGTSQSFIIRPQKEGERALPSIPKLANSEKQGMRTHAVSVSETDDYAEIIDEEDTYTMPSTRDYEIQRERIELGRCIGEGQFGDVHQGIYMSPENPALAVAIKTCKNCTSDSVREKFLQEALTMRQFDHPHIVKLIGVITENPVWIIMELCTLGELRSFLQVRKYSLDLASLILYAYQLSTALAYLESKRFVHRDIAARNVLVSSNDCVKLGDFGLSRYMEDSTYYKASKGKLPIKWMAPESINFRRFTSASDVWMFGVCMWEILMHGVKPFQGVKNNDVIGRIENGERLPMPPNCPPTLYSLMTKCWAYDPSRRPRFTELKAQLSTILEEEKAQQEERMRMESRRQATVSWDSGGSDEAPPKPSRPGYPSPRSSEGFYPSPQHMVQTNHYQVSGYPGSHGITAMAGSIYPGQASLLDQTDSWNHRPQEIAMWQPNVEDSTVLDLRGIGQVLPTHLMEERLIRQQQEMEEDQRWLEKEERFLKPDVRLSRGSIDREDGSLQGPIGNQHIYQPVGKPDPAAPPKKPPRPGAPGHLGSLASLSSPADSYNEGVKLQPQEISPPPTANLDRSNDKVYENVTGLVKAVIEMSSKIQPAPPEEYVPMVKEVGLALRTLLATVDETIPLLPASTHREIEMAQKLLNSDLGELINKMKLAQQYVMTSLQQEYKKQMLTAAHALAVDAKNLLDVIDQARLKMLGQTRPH

HSC-3 = test: Antiproliferative activity against HSC-3 in human […] cells at 3 uM incubated for 21 days; format: functional, cell-based; conditions: time 21.0 day
Hep3B = test: Antiproliferative activity against human Hep3B2.1-7 cells incubated for 7 to 14 days by methylene blue dye based anchorage independent growth assay; format: functional, cell-based; conditions: time 7-14 day
A549 [19] = test: Induction of general kinase degradation in human A549 cells at 3 uM incubated for 18 hrs by mass spectrometry based total proteome analysis; format: functional, cell-based
[20] = target: T1, von Hippel-Lindau disease tumor suppressor/Focal adhesion kinase 1; test: Protac activity at VHL/PTK2 in human A549 cells assessed as induction of PTK2 degradation at 1 to 100000 nM incubated for 18 hrs in presence of NEDD8 inhibitor […] by protein capillary electrophoresis method; format: cell-based; conditions: dose 1-100000 nM
Target sequence in this assay (P40337 whole entry partner): as the sequence (P40337 whole entry) above
Target sequence in this assay (Q05397 2-1052 limits assumed): as the sequence (Q05397 2-1052 limits assumed) above

SNU-398 [21] = test: cells; conditions: Homo sapiens, SNU-398, 144 h, read-out: pIC50 (converted)
Description: Antiproliferative activity against human SNU-398 cells incubated for 6 days by CellTiter-Glo luminescent cell viability assay

HepG2 [22] = test: cells; conditions: Homo sapiens, HepG2, 144 h, read-out: pIC50 (converted)
Description: Antiproliferative activity against human HepG2 cells incubated for 6 days by CellTiter-Glo luminescent cell viability assay

[23] = target: T1, von Hippel-Lindau disease tumor suppressor/Focal adhesion kinase 1; test: Protac activity at VHL/PTK2 in human HLF1 cells assessed as induction of PTK2 degradation incubated for 18 hrs by protein capillary electrophoresis method relative to control; format: cell-based
Target sequence in this assay (P40337 whole entry partner): as the sequence (P40337 whole entry) above
Target sequence in this assay (Q05397 2-1052 limits assumed): as the sequence (Q05397 2-1052 limits assumed) above

[24] = Stability in EMEM cell assay buffer containing 10% FCS; format: physicochemical; conditions: cattle
HLE [25] = test: Antiproliferative activity against human HLE cells incubated for 7 to 14 days by methylene blue dye based anchorage independent growth assay; format: functional, cell-based; conditions: time 7-14 day
Huh-7 [26] = test: cells; conditions: Homo sapiens, Huh-7, 144 h, read-out: pIC50 (converted)
Description: Antiproliferative activity against human Huh-7 cells incubated for 6 days by CellTiter-Glo luminescent cell viability assay

[27] = Fraction unbound in 10% FCS; format: ADME, cell-free, Bos taurus; conditions: cattle, 10% fetal calf serum (FCS)
HuCCT-1 [28] = test: cells; conditions: Homo sapiens, HuCCT-1, 144 h, read-out: pIC50 (converted)
Description: Antiproliferative activity against human HuCCT-1 cells incubated for 6 days by CellTiter-Glo luminescent cell viability assay

HepG2 [29] = test: Antiproliferative activity against human HepG2 cells incubated for 7 to 14 days by methylene blue dye based anchorage independent growth assay; format: functional, cell-based; conditions: time 7-14 day
[30] = target: T1, von Hippel-Lindau disease tumor suppressor/Focal adhesion kinase 1; test: Protac activity at VHL/PTK2 in human HuCCT-1 cells assessed as induction of PTK2 degradation incubated for 18 hrs by protein capillary electrophoresis method; format: cell-based
Target sequence in this assay (Q05397 whole entry): as the sequence (Q05397 whole entry) above
Target sequence in this assay (P40337 whole entry): as the sequence (P40337 whole entry) above

HLE [31] = test: cells; conditions: Homo sapiens, 144 h, read-out: pIC50 (converted)
Description: Antiproliferative activity against human HLE cells incubated for 6 days by CellTiter-Glo luminescent cell viability assay

[32] = target: Retinal rod rhodopsin-sensitive cGMP 3',5'-cyclic phosphodiesterase subunit delta (Homo sapiens) (UniProt O43924); test: Induction of PDE6D degradation in human A549 cells at 3 uM incubated for 18 hrs by mass spectrometry based total proteome analysis; format: cell-based
[33] = target: T1, von Hippel-Lindau disease tumor suppressor/Focal adhesion kinase 1; test: Protac activity at VHL/PTK2 in human SNU-423 cells assessed as induction of PTK2 degradation incubated for 18 hrs by protein capillary electrophoresis method relative to control; format: cell-based
Target sequence in this assay (P40337 whole entry partner): as the sequence (P40337 whole entry) above
Target sequence in this assay (Q05397 2-1052 limits assumed): as the sequence (Q05397 2-1052 limits assumed) above

[34] = target: T2, Protein cereblon/Focal adhesion kinase 1 (Homo sapiens, UniProt Q05397+Q96SW2); test: Protac activity at CRBN/PTK2 in human SNU-423 cells assessed as induction of PTK2 degradation incubated for 18 hrs by protein capillary electrophoresis method relative to control; format: cell-based
[35] = target: T2, Protein cereblon/Focal adhesion kinase 1; test: Protac activity at CRBN/PTK2 in human HLE cells assessed as induction of PTK2 degradation incubated for 18 hrs by protein capillary electrophoresis method relative to control; format: cell-based

Retinal rod rhodopsin-sensitive cGMP 3',5'-cyclic phosphodiesterase subunit delta (Homo sapiens), sequence (O43924 whole entry): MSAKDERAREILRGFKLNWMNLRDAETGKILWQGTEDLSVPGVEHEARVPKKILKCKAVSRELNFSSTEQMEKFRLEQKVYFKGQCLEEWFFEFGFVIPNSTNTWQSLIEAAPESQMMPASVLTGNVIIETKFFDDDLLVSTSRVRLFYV
Focal adhesion kinase 1, sequence (Q05397 whole entry, the tested form may be a part): as the sequence (Q05397 whole entry) above
T2 sequence (Q05397 2-1052 limits assumed): as the sequence (Q05397 2-1052 limits assumed) above
T2 sequence (Q96SW2 whole entry partner): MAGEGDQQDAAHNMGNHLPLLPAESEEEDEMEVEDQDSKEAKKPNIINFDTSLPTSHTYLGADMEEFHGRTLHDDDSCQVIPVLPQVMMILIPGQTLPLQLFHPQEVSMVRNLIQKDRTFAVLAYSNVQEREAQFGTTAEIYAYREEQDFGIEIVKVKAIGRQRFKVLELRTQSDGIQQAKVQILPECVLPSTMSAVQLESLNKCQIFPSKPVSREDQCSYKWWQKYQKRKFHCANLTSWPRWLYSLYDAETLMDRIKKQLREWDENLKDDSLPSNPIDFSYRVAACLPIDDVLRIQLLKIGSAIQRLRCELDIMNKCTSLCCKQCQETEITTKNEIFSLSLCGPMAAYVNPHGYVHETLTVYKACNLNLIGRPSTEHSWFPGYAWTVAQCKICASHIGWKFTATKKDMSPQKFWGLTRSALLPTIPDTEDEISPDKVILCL

Row | Compound | Activity (SNU-398 [2]) | IC50 (cells [3]) | Activity (A549 [4]) | IC50 (Focal adhesion kinase 1) | Activity (HuCCT-1 [6]) | Activity [7] | IC50 (SK-HEP1 [8]) | Activity (C32) | Activity (SNU-423 [9]) | Activity (CFPAC-1) | Activity (SK-HEP1 [10]) | permeability [11] | Activity (HuH-1) | Activity (Huh-7 [12]) | Activity (SNU-387 [13]) | IC50 (SNU-387 [14]) | Activity (HLF1) | IC50 (cells [15]) | IC50 (SNU-423 [16]) | IC50 (cells [17]) | also measured
1 | COc1cc(C(=O)NCCOCCOCCOCC(=O)N[C@H](C(=O)N2C[C@H](O)C[C@H]2C(=O)NCc2ccc(-c3scnc3C)cc2)C(C)(C)C)ccc1Nc1ncc(C(F)(F)F)c(Oc2cccc3c2C(=O)CC3)n1 | inactive | > 25.1 µM | inactive | 0.019 µM | inactive | Active | 7.94 µM | inactive | inactive | inactive | inactive | Impermeable | inactive | inactive | inactive | 5.01 µM | inactive | 20 µM | 6.31 µM | 6.31 µM | pDC50 [1]: 8; pDC50 [5]: 7.4; TIME [18]: 72 h; Activity (HSC-3): inactive; Activity (Hep3B): inactive; Activity (A549 [19]): inactive; Activity [20]: inactive; IC50 (SNU-398 [21]): 7.94 µM; IC50 (HepG2 [22]): > 25.1 µM; Emax [23]: 66%; Stabilty [24]: Stable; Activity (HLE [25]): inactive; IC50 (Huh-7 [26]): 3.98 µM; fraction unbound [27]: 0.113; IC50 (HuCCT-1 [28]): 6.31 µM; Activity (HepG2 [29]): inactive; pDC50 [30]: 6.9; IC50 (HLE [31]): 10 µM; Activity [32]: Active; Emax [33]: 87%
2 | COc1cc(C(=O)NCCOCCOCCOCCC(=O)Nc2cccc3c2C(=O)N(C2CCC(=O)NC2=O)C3=O)ccc1Nc1ncc(C(F)(F)F)c(Oc2cccc3c2C(=O)CC3)n1 (stereo not given) | inactive | > 25.1 µM | inactive | 0.018 µM | inactive | inactive | 1.58 µM | inactive | inactive | inactive | inactive | Impermeable | inactive | inactive | inactive | > 25.1 µM | inactive | 25.1 µM | 20 µM | 25.1 µM | Emax [34]: 93%; Activity (HSC-3): inactive; Activity (Hep3B): inactive; Emax [35]: 79%; Activity (A549 [19]): inactive; IC50 (SNU-398 [21]): > 25.1 µM; IC50 (HepG2 [22]): > 25.1 µM; Stabilty [24]: Unstable; Activity (HLE [25]): inactive; IC50 (Huh-7 [26]): > 25.1 µM; fraction unbound [27]: 0.04; IC50 (HuCCT-1 [28]): > 25.1 µM; Activity (HepG2 [29]): inactive; IC50 (HLE [31]): > 25.1 µM; Activity [32]: inactive

Reference: ChEMBL document CHEMBL4673225, “Highly Selective PTK2 Proteolysis Targeting Chimeras to Probe Focal Adhesion Kinase Scaffolding Functions” (J Med Chem, 2019)
